How the values were obtained:
Assay in all cases: KINOMEscan scanEDGE
Format in all cases: binding
Settings in all cases: read-out: Percent Control
[1] = target: T1, BRAF(V600E) (Homo sapiens, UniProt P15056, V600E)
T1 construct: purchased Eurofins DiscoverX
Method: (§1) Kinome Scan. Compound HTW_A_8 fumarate was screened against 97 kinases at a single concentration of 10 μM at Eurofins DiscoverX using their KINOMEscan™ scanEDGE assay. The results are reported as the % activity relative to DMSO control, where lower values indicate higher affinity. See Table 1 for the full kinome profile.

[2] = target: T2, SRC (Homo sapiens, UniProt P12931)
T2 construct: purchased Eurofins DiscoverX KINOMEscan scanEDGE
Method: as §1

[3] = target: T3, JNK3 (Homo sapiens, UniProt P53779)
T3 construct: purchased Eurofins DiscoverX
Method: as §1

[4] = target: T4, ZAP70 (Homo sapiens, UniProt P43403)
T4 construct: purchased Eurofins DiscoverX KINOMEscan scanEDGE
Method: as §1

[5] = target: T5, AKT1 (Homo sapiens, UniProt P31749)
T5 construct: purchased Eurofins DiscoverX
T5 sequence (P31749 whole entry): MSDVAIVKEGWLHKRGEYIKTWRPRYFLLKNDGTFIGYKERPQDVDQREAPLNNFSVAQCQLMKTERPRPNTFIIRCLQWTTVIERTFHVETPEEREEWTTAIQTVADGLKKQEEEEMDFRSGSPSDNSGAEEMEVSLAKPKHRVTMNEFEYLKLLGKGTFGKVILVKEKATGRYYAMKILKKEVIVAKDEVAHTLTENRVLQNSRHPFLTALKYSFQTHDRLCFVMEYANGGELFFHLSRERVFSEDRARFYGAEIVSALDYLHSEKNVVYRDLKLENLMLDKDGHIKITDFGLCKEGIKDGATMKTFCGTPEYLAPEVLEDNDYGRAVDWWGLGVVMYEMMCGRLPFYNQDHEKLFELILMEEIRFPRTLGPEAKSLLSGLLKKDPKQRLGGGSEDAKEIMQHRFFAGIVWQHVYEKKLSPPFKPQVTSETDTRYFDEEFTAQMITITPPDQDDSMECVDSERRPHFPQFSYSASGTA
Method: as §1

[6] = target: T6, BTK (Homo sapiens, UniProt Q06187)
T6 construct: purchased Eurofins DiscoverX
Method: as §1

[7] = target: T7, MAPKAPK2 (Homo sapiens, UniProt P49137)
T7 construct: purchased Eurofins DiscoverX (KINOMEscan scanEDGE service)
Method: as §1

[8] = target: T8, CDK7 (Homo sapiens, UniProt P50613)
T8 construct: purchased Eurofins DiscoverX
Method: as §1

[9] = target: T9, MLK1 (Homo sapiens, UniProt P80192)
T9 construct: purchased Eurofins DiscoverX (KINOMEscan scanEDGE service)
T9 sequence (P80192 whole entry): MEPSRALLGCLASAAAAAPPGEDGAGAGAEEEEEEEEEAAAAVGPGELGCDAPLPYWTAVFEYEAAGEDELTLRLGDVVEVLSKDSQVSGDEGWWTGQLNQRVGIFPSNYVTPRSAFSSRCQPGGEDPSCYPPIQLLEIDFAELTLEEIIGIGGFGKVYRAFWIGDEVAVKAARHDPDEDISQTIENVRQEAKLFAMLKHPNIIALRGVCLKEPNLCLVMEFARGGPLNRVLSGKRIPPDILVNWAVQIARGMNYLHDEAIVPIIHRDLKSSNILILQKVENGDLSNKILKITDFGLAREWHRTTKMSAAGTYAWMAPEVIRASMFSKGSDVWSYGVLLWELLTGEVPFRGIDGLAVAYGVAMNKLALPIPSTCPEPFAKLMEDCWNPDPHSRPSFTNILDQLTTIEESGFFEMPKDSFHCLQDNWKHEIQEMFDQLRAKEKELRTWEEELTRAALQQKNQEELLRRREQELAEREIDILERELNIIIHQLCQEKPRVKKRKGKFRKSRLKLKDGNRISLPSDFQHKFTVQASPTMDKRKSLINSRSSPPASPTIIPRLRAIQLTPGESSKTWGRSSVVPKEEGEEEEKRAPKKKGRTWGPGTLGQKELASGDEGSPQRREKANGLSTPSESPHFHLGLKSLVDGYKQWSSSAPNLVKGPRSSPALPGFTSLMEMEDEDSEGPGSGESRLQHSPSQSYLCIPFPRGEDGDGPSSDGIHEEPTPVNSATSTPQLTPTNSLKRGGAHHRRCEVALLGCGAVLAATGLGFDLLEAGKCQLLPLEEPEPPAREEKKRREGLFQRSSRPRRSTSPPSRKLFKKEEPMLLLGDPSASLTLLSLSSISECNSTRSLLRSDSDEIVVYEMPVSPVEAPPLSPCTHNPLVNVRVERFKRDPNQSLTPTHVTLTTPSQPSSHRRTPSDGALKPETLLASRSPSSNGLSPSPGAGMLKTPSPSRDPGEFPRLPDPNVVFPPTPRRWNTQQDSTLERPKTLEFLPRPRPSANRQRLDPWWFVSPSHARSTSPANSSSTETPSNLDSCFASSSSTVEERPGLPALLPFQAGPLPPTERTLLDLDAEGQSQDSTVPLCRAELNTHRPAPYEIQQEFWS
Method: as §1

[10] = target: T10, ABL1(T315I)-phosphorylated (Homo sapiens, UniProt P00519, T315I)
T10 construct: purchased Eurofins DiscoverX
Method: as §1

[11] = target: T11, JAK2(JH1domain-catalytic) (Homo sapiens, UniProt O60674)
T11 construct: JAK2(JH1domain-catalytic); purchased Eurofins DiscoverX
Method: as §1

[12] = target: T12, ABL1(E255K)-phosphorylated (Homo sapiens, UniProt P00519, E255K)
T12 construct: purchased Eurofins DiscoverX
Method: as §1

[13] = target: T13, ABL1-phosphorylated (Homo sapiens, UniProt P00519)
T13 construct: purchased Eurofins DiscoverX
Method: as §1

[14] = target: T14, PIK3C2B (Homo sapiens, UniProt O00750)
T14 construct: purchased Eurofins DiscoverX (KINOMEscan scanEDGE service)
T14 sequence (O00750 whole entry): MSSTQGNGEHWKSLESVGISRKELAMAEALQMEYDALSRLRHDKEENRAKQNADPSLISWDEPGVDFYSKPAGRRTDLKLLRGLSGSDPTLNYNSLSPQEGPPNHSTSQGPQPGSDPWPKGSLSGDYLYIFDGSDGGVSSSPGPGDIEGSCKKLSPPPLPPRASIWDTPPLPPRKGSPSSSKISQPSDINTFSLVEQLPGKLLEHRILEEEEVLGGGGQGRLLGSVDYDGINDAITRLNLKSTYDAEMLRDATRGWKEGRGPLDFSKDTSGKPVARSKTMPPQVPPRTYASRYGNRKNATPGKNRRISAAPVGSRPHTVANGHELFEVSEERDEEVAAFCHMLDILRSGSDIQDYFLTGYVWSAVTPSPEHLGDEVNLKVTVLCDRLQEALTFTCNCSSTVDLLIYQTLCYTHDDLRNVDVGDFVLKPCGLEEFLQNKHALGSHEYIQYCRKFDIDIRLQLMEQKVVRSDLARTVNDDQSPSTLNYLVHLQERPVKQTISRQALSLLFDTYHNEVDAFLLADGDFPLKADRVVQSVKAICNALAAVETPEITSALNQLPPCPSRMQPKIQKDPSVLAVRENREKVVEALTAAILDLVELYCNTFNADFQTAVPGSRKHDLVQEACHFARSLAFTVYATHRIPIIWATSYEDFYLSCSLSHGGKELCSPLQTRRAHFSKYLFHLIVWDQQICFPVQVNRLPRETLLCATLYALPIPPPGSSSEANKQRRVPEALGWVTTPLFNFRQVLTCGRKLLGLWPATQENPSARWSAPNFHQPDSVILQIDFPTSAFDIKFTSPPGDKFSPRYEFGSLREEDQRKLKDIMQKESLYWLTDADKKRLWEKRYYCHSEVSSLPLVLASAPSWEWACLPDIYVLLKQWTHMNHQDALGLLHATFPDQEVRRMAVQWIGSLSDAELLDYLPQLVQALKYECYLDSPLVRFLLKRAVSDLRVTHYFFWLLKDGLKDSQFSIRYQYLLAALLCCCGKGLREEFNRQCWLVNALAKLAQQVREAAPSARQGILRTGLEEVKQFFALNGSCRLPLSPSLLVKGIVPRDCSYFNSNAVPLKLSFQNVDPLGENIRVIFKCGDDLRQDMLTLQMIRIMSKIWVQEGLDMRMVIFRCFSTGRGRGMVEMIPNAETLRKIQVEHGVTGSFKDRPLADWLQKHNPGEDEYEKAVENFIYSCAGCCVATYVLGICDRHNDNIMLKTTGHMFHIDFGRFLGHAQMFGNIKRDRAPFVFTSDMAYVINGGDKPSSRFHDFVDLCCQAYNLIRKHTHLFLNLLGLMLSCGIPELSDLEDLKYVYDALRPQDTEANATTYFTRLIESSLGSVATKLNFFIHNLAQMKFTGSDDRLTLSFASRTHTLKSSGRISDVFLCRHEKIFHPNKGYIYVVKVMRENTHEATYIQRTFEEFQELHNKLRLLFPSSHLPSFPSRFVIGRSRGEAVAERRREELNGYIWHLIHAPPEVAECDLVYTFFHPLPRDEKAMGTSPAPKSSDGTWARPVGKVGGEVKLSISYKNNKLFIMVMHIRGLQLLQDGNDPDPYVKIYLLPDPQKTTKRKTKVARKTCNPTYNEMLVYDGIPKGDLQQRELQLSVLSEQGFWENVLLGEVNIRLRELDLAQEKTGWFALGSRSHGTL
Method: as §1

[15] = target: T15, AURKA (Homo sapiens, UniProt O14965)
T15 construct: purchased Eurofins DiscoverX
Method: as §1

[16] = target: T16, VEGFR2 (Homo sapiens, UniProt P35968)
T16 construct: purchased Eurofins DiscoverX KINOMEscan scanEDGE
Method: as §1

[17] = target: T17, EPHA2 (Homo sapiens, UniProt P29317)
T17 construct: purchased Eurofins DiscoverX
Method: as §1

[18] = target: T18, JNK1 (Homo sapiens, UniProt P45983)
T18 construct: purchased Eurofins DiscoverX
Method: as §1

[19] = target: T19, PKAC-alpha (Homo sapiens, UniProt P17612)
T19 construct: purchased Eurofins DiscoverX KINOMEscan scanEDGE
Method: as §1

[20] = target: T20, PIM3 (Homo sapiens, UniProt Q86V86)
T20 construct: purchased Eurofins DiscoverX (KINOMEscan scanEDGE service)
Method: as §1

[21] = target: T21, MKNK1 (Homo sapiens, UniProt Q9BUB5)
T21 construct: purchased Eurofins DiscoverX (KINOMEscan scanEDGE service)
Method: as §1

[22] = target: T22, RIOK2 (Homo sapiens, UniProt Q9BVS4)
T22 construct: purchased Eurofins DiscoverX KINOMEscan scanEDGE
Method: as §1

[23] = target: T23, PIM1 (Homo sapiens, UniProt P11309)
T23 construct: purchased Eurofins DiscoverX (KINOMEscan scanEDGE service)
Method: as §1

[24] = target: T24, PIK3CA (Homo sapiens, UniProt P42336)
T24 construct: purchased Eurofins DiscoverX (KINOMEscan scanEDGE service)
Method: as §1

[25] = target: T25, IKK-alpha (Homo sapiens, UniProt O15111)
T25 construct: purchased Eurofins DiscoverX
Method: as §1

[26] = target: T26, RET (Homo sapiens, UniProt P07949)
T26 construct: purchased Eurofins DiscoverX KINOMEscan scanEDGE
Method: as §1

[27] = target: T27, ERK1 (Homo sapiens, UniProt P27361)
T27 construct: purchased Eurofins DiscoverX
T27 sequence (P27361 whole entry): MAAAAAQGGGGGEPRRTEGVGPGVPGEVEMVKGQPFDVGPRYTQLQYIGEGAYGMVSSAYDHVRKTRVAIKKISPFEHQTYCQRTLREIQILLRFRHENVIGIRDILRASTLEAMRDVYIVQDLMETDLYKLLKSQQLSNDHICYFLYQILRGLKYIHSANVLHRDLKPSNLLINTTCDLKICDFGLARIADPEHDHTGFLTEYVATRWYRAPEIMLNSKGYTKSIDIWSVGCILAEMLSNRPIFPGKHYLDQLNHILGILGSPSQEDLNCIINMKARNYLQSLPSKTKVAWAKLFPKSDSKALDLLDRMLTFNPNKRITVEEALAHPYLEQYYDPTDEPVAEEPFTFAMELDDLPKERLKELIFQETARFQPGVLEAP
Method: as §1

[28] = target: T28, RAF1 (Homo sapiens, UniProt P04049)
T28 construct: purchased Eurofins DiscoverX KINOMEscan scanEDGE
T28 sequence (P04049 whole entry): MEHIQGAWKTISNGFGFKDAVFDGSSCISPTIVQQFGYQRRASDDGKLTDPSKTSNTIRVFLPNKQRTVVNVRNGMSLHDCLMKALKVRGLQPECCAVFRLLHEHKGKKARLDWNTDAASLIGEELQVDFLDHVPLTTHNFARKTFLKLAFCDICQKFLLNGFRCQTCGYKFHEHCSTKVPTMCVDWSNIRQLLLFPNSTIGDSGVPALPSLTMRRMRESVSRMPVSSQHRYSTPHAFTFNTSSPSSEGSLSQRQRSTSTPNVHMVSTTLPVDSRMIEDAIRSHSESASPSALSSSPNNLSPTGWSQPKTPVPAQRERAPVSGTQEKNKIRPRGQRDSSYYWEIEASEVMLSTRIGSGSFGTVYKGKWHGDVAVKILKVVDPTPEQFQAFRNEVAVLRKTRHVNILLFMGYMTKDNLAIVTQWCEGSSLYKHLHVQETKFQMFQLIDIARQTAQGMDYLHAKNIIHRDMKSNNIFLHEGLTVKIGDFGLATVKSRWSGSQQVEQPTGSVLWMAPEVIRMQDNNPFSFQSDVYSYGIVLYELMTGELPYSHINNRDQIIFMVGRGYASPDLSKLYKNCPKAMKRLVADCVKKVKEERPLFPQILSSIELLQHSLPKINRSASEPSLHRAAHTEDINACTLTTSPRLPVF
Method: as §1

[29] = target: T29, CHEK1 (Homo sapiens, UniProt O14757)
T29 construct: purchased Eurofins DiscoverX
Method: as §1

[30] = target: T30, TGFBR1 (Homo sapiens, UniProt P36897)
T30 construct: purchased Eurofins DiscoverX KINOMEscan scanEDGE
Method: as §1

[31] = target: T31, MEK2 (Homo sapiens, UniProt P36507)
T31 construct: purchased Eurofins DiscoverX (KINOMEscan scanEDGE service)
Method: as §1

[32] = target: T32, CSF1R (Homo sapiens, UniProt P07333)
T32 construct: purchased Eurofins DiscoverX
Method: as §1

[33] = target: T33, PDGFRB (Homo sapiens, UniProt P09619)
T33 construct: purchased Eurofins DiscoverX (KINOMEscan scanEDGE service)
Method: as §1

[34] = target: T34, PLK3 (Homo sapiens, UniProt Q9H4B4)
T34 construct: purchased Eurofins DiscoverX KINOMEscan scanEDGE
Method: as §1

[35] = target: T35, EGFR(L858R) (Homo sapiens, UniProt P00533, L858R)
T35 construct: purchased Eurofins DiscoverX
Method: as §1

[36] = target: T36, BRAF (Homo sapiens, UniProt P15056)
T36 construct: purchased Eurofins DiscoverX
T36 sequence (P15056 whole entry): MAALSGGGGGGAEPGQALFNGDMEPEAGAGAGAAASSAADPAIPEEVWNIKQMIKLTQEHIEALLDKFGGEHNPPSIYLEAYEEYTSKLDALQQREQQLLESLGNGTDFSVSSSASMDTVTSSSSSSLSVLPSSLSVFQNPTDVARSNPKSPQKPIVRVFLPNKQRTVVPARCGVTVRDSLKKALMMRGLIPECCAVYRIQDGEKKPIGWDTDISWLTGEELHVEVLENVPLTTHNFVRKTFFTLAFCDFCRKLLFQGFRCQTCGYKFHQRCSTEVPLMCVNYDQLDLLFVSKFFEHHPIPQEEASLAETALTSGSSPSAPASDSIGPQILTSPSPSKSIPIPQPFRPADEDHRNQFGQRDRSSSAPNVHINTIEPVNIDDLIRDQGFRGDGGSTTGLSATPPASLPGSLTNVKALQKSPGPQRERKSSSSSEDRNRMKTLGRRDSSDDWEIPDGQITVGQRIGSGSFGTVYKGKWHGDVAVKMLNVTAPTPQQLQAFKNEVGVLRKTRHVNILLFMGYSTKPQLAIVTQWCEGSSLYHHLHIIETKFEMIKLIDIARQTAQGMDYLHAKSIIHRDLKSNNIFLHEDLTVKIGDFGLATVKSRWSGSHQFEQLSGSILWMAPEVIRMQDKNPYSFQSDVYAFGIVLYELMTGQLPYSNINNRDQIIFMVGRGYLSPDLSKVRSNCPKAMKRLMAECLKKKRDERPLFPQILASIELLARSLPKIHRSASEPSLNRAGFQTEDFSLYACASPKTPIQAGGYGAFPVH
Method: as §1

[37] = target: T37, PRKCE (Homo sapiens, UniProt Q02156)
T37 construct: purchased Eurofins DiscoverX KINOMEscan scanEDGE
Method: as §1

[38] = target: T38, MAP3K4 (Homo sapiens, UniProt Q9Y6R4)
T38 construct: purchased Eurofins DiscoverX (KINOMEscan scanEDGE service)
Method: as §1

T1 sequence (P15056 whole entry V600E): as the sequence (P15056 whole entry) above, with V600E counted along it

COc1ccc2c3ccnc(C)c3n(CCN(C)C)c2c1.O=C(O)/C=C/C(=O)O [HTW_A_8 fumarate, 2-(7-methoxy-1-methyl-9H-pyrido[3,4-b]indol-9-yl)-N,N-dimethylethan-1-amine Fumarate Salt (2:3)]
remaining binding at 10 µM [1]: 100% | remaining binding at 10 µM [2]: 99% | remaining binding at 10 µM [3]: 91% | remaining binding at 10 µM [4]: 93% | remaining binding at 10 µM [5]: 96% | remaining binding at 10 µM [6]: 100% | remaining binding at 10 µM [7]: 99% | remaining binding at 10 µM [8]: 15% | remaining binding at 10 µM [9]: 91% | remaining binding at 10 µM [10]: 100% | remaining binding at 10 µM [11]: 100% | remaining binding at 10 µM [12]: 79% | remaining binding at 10 µM [13]: 81% | remaining binding at 10 µM [14]: 100% | remaining binding at 10 µM [15]: 100% | remaining binding at 10 µM [16]: 100% | remaining binding at 10 µM [17]: 88% | remaining binding at 10 µM [18]: 100% | remaining binding at 10 µM [19]: 97% | remaining binding at 10 µM [20]: 96% | remaining binding at 10 µM [21]: 93% | remaining binding at 10 µM [22]: 83% | remaining binding at 10 µM [23]: 94% | remaining binding at 10 µM [24]: 100% | remaining binding at 10 µM [25]: 100% | remaining binding at 10 µM [26]: 95% | remaining binding at 10 µM [27]: 85% | remaining binding at 10 µM [28]: 93% | remaining binding at 10 µM [29]: 93% | remaining binding at 10 µM [30]: 90% | remaining binding at 10 µM [31]: 82% | remaining binding at 10 µM [32]: 98% | remaining binding at 10 µM [33]: 100% | remaining binding at 10 µM [34]: 96% | remaining binding at 10 µM [35]: 87% | remaining binding at 10 µM [36]: 100% | remaining binding at 10 µM [37]: 100% | remaining binding at 10 µM [38]: 100%
